Here are results for 1 compound from US7655670B2 (Janssen Pharmaceutica N.V., priority 2005, dated 2010).

The target of assay [1] is human nociceptin receptor (ORL-1) (Homo sapiens, UniProt P41146). Kind of assay: nociceptin receptor (ORL-1) binding assay, 125I-Tyr14-nociceptin displacement.
In assay [2] the target is Kappa (κ) opioid receptor (Homo sapiens, UniProt P41145). Put plainly: Filtration binding assay, kappa opioid receptor (U69593-H3 ligand). As to conditions: 2C2 cell line membrane, U69593-H3 ligand; calculated mean where tested more than once; read-out: Kappa (κ) IC50.
The target of assay [3] is T1, ORL-1 receptor (Homo sapiens, UniProt P41146).
T1 construct: expressed in transfected cells; host or cells: HEK-293 over-expressing ORL-1 and Gqi5
Kind of assay: ORL-1 functional assay (calcium flux, FLIPR). Format: cell-based. Set-up: key to Inhibitor: a notation of “no” indicates that the compound did not act as an inhibitor; a notation of “yes” indicates that the compound acted as an inhibitor; a notation of “undetermined” indicates that the data did not clearly show whether or not the compound acted as an antagonist. As to the method: To assay the function of a test compound, a HEK-293 cell line that over-expresses the ORL-1 receptor and the Gqi5 G protein (Molecular Devices) were employed. By using a calcium flux assay, agonism and antagonism through the ORL-1 receptor were detectable.
The HEK-293 cells were plated two days prior to assay. For assay, cells in 50 μl of medium were incubated with 50 μl of dye (Molecular Devices) for 1 hour at 37° C. 100 μl of test compound diluted in Hank's Buffered Salt Solution (HBSS) at 2-fold the indicated final concentration was added and time points taken every 1 second for 1 minute and every 3 seconds for an additional 1 minute using FLIPR384 (Molecular Devices). 50 μl of nociceptin (Neosystems, SA) at 5-fold the indicated final concentration was then added and additional time points were recorded every 1 second for 1 minute and every 3 seconds for an additional 1 minute.
The resulting data were processed using Microsoft Excel 6.0 and EC50 values were determined using GraphPad Prism 3.0. For agonists, the EC50 was determined from the initial calcium signal obtained after addition of the test compound. For compounds that behaved as antagonists, the percent inhibition or IC50 of the signal resulting from the subsequent addition of the nociceptin peptide was calculated.
On the technique in general: Calcium flux is commonly read through the fluorescence of an indicator in the cells.

In assay [4] the target is Delta (δ) opioid receptor (Homo sapiens, UniProt P41143). Put plainly: Filtration binding assay, delta opioid receptor (DPDPE-H3 ligand). As to conditions: 2D4 cell line membrane, DPDPE-H3 ligand; calculated mean where tested more than once; read-out: Delta (δ) IC50.
Assay [5] addresses Mu (μ) opioid receptor (Homo sapiens, UniProt P35372). Put plainly: Filtration binding assay, mu opioid receptor (Damgo-H3 ligand). As to conditions: 1 D4 cell line membrane, Damgo-H3 ligand; calculated mean where tested more than once; read-out: Mu (μ) IC50.

T1 sequence (P41146 whole entry): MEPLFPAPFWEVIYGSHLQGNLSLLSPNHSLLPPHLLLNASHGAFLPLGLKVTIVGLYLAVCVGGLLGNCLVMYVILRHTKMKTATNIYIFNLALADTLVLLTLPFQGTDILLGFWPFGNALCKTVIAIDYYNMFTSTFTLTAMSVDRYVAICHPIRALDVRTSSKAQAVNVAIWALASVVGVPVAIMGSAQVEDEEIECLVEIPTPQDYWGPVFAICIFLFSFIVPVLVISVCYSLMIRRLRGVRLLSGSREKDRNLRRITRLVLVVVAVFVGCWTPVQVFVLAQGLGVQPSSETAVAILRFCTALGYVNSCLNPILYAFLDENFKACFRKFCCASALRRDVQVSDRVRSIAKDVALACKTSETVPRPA
Chain of Delta (δ) opioid receptor (P41143 whole entry): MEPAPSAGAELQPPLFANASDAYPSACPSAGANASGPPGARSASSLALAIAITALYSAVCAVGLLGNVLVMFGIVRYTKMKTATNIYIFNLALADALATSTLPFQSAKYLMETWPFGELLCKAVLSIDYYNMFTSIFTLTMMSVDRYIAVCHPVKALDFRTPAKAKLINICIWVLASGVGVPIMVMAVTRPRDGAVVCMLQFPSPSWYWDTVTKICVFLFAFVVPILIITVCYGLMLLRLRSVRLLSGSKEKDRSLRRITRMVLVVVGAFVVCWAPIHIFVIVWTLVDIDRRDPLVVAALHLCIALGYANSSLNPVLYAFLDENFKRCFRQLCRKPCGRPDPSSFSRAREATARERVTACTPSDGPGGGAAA
Chain of Mu (μ) opioid receptor (P35372 whole entry): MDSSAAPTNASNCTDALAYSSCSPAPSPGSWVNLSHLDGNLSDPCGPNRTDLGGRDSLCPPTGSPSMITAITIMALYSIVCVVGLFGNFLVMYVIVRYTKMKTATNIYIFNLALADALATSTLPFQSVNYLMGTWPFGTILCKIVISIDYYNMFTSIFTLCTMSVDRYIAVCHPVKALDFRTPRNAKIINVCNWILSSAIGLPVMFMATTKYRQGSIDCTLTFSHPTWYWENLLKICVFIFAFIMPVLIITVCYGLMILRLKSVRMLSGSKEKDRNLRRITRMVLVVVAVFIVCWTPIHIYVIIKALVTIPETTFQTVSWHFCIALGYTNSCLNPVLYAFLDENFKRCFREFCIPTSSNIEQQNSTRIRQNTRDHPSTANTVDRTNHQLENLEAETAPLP
Chain of Kappa (κ) opioid receptor (P41145 whole entry): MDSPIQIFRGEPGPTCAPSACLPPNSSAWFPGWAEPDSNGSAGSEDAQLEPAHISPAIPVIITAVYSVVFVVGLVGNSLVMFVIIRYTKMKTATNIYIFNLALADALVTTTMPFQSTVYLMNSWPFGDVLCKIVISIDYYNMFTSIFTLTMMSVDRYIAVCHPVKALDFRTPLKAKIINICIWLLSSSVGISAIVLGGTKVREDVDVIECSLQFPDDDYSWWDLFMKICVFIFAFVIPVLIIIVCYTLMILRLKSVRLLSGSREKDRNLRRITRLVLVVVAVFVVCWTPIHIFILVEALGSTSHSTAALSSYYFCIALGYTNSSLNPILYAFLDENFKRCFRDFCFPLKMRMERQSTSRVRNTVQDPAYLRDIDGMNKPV
Chain of human nociceptin receptor (ORL-1) (P41146 whole entry): as the sequence (P41146 whole entry) above

For `Cc1ccc2c(c1)N(C)C(=O)C21CCN(CC2CCCCCCC2)CC1` [Compound 58, 1-methyl-5-(cyclooctyl-methyl)-10-methyl-spiro[indoline-3,4′-piperidin]-2-one], the IC50 is 0.15 µM in assay [1], 2.38 µM in assay [2], 8.8 µM in assay [4] and 6.47 µM in assay [5]. Also, in assay [3] (HEK-293 cells over-expressing ORL-1 receptor and Gqi5 G protein, calcium flux), the Inhibitor result is listed as “undetermined”. Besides, the “% Inhibition (100 nM Nociceptin)” value in assay [3] (inhibition of calcium signal from 100 nM nociceptin, HEK-293 cells with ORL-1 and Gqi5) worked out at 48 ± 26%.
